In article PMC9007462 (Journal of Medicinal Chemistry, 2022):

Target: T1, Human ALDH1A1 (Homo sapiens, UniProt P00352)
T1 construct: made in house
T1 sequence (P00352 1-501): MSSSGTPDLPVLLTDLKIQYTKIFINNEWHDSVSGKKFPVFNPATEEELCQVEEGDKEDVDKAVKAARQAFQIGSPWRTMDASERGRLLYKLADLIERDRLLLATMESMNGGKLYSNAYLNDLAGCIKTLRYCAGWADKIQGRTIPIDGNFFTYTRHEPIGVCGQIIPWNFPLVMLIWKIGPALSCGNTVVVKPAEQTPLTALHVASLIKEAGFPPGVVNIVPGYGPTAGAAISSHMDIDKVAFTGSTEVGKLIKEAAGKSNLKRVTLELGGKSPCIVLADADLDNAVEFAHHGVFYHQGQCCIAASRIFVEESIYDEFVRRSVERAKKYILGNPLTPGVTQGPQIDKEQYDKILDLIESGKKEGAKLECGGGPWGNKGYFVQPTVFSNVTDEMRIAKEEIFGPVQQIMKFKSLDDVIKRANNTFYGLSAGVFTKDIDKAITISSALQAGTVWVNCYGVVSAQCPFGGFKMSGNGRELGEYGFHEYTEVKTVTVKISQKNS
Test: DEAB analogues as substrates of ALDH1A1
Type: biochemical
Conditions: 10 μM compound as substrate, relative to activity with 10 μM hexanal (Figure S2)
Procedure: Human ALDH1A1, ALDH1A3, and ALDH3A1 were cloned and recombinantly expressed from the pET-30 Xa/LIC vector. Protein purification was achieved by affinity chromatography on a nickel-charged chelating Sepharose Fast Flow 5-mL column (His Trap column, Cytiva), which specifically binds the protein due to its N-terminal (His)6 tag, using an ÄKTA FPLC system (Cytiva), as previously described.[55] Enzymes including the His tag were stored at −80 °C in 20 mM Tris/HCl and 0.5 M NaCl, pH 8.0, until use. Reaction buffers were as follows: ALDH1A1 was assayed in 50 mM HEPES, 0.5 mM EDTA, and 0.5 mM DTT, pH 8.0; ALDH1A3 was assayed in 50 mM HEPES, 30 mM MgCl2, and 5 mM DTT, pH 8.0; and ALDH3A1 was assayed in 50 mM Tris–HCl and 5 mM DTT, pH 8.0. Activity under standard conditions was measured fluorimetrically at 25 °C using a Cary Eclipse (Varian) fluorimeter to follow the purification procedure and to check the enzyme concentration before each kinetic experiment. The fluorescence of NADH was characterized at 460 nm with excitation at 340 nm, and 5 μM NAD(P)H was added as an internal standard to obtain the absolute reaction rates.[55] Standard activity was measured at saturating concentrations of substrate using 30 μM hexanal (ALDH1A1), 250 μM hexanal (ALDH1A3), or 250 μM 4-NBA (ALDH3A1). NAD^+ was 500 μM for ALDH1A1 and ALDH1A3, and NADP^+ was 1 mM for ALDH3A1.
According to their structure with a carbonyl group, compounds were tested for their substrate properties against ALDH1A1, ALDH1A3, and ALDH3A1. […] Results are expressed as the percentage of activity at 10 μM versus the activity at 10 μM of their standard substrate (hexanal or 4-NBA). Values are expressed as the mean ± SE.

CCCN(CCC)c1ccc(C=O)cc1[N+](=O)[O-] [Compound 18, 4-(Dipropylamino)-3-Nitrobenzaldehyde]
ALDH1A1 substrate activity: 17%
